US10751387B2, “Pharmacological therapy for neuronopathic Gaucher disease” (priority 2016, dated 2020)
Values joined by “and” are separate entries in the source; they are usually repeats but may differ in a detail not shown here. Equal entries are not always repeated.

What was measured:
CBE-N2a cells [1] = assay: Substrate (GC, GS) levels in nGD cell model (CBE-N2a) by ESI-LC-MS/MS; type: cell-based, mouse; conditions: 5 days
Protocol: (§1) N2a cells were maintained in DMEM/10% FBS (Gibco) medium. Neuronal differentiation of N2a was carried out in the differentiation medium containing 0.5% FBS, 10 μM retinoic acid, 50 ng/ml GDNF (Alomore lab) and 1 mM dbcAMP in DMEM for 3 days (37). The differentiated N2a cells were treated with 2 mM CBE for 5 days in the differentiation medium. […]. The medium with the reagents was changed every 2 days. The differentiation status of the neuronal cells was confirmed by anti-Map2 (mature neuron) or anti-Nestin (undifferentiated neuronal cells) antibody staining. Cell viability after each drug treatment was measured by CellTiter-Fluoirm Cell Viability assay (Promega). […]. The cells were from same passage and treated at the same time for all the experiments.
(§2) Glycosphingolipids in mouse brains and N2a cells were extracted with chloroform and methanol as described (83). GC and GS content in the extracts was analysed by ESI-LC-MS/MS using a Waters Quattro Micro API triple quadrupole mass spectrometer (Milford, Mass.) interfaced with Acquity UPLC system as described (35). The concentration of GC and GS in the brain was normalized to mg tissue weight and in the cells was normalized by mg protein in the cell lysate.

CBE-N2a cells [2] = assay: Cytosolic calcium level measurement with Fura-2 after caffeine; type: cell-based, mouse; conditions: CBE-N2a cells vs untreated; dantrolene 12.5 μM, ryanodine 10 μM, G6 0.8 μM, 5 days; caffeine 10 mM
Protocol: (§4) N2a cells were maintained in DMEM/10% FBS (Gibco) medium. Neuronal differentiation of N2a was carried out in the differentiation medium containing 0.5% FBS, 10 μM retinoic acid, 50 ng/ml GDNF (Alomore lab) and 1 mM dbcAMP in DMEM for 3 days (37). The differentiated N2a cells were treated with 2 mM CBE for 5 days in the differentiation medium. […] The medium with the reagents was changed every 2 days. […] Cell viability after each drug treatment was measured by CellTiter-Fluoirm Cell Viability assay (Promega). […] The cells were from same passage and treated at the same time for all the experiments.
Intracellular calcium levels were determined using the Fura-2 QBT Calcium Kit (Molecular Devices, Sunnyvale, Calif.) on 96 well plates by M5 SpectraMax plate reader (Molecular Devices). N2a cells were seeded in each well (20,000/well) with differentiation medium (0.5% FBS, DMEM, 10 AM retinoic acid, 1 mM dbcAMP) for 72 h (37). […] The cell medium was replaced every two days. The treated cells were incubated with Fura-2 QBT dye at 37 C for 1 h for Fura-2 QBT uptake (Fura2 QBT® calcium kit protocol, Molecular Devices). Caffeine (10 mM) was used as an ER calcium efflux stimulant in the assay (38,39). The plate reader setting was 340/380 nm (excitation) and 510 nm (emission). Baseline calcium levels were measured prior to caffeine addition (−30 s). Cytosolic calcium levels were recorded every 30 s for duration of 300 s after addition of caffeine. Relative cytosolic calcium levels were determined with the values at 300 s endpoint minus Os baseline. Relative cytosolic calcium level [Fura-2 AF/F (340/380510 nm] for control or treated cells was calculated by Fura-2 fluorescence unit (FU) measured at 340 nm/510 nm (AF=RFU/340 at 300 s end point minus baseline RFU/340 at 0 s) divided by FU at 380 nm/510 nm (F=RFU/380 at 300 s-baseline RFU/380 at 0 s) (Fura2 QBT® calcium kit protocol, Molecular Devices) and normalized to protein level in cells. Data were collected and analysed by SoftMax Pro software (Molecular Devices) and graphical charts were generated by Graphpad Prism 6.0.

[3] = Body and organ weights of treated mice; type: in vivo, mouse; conditions: IP 10 mg/kg three days per week
Ryr3 [4] = assay: Immunoblot of Ryr3 in CBE-N2a cells; type: cell-based, mouse; conditions: dantrolene 12.5 μM, untreated 47%
Protocol: as §1
Half of mice brain (sagittal cut) tissues were homogenized in M-PER Mammalian Protein Extraction Reagent and subjected to electrophoresis. Ryr proteins (−500 kD) in tissues lysate were separated on 3-8% NuPAGE gel running at 90V for 12 h at 4° C. in acetate buffer. […] LC3, CAMK IV and calmodulin were separated on 16% Tris-glycine gel (Novex) and detected by anti-LC3 (1:1000), anti-CAMK IV (1:500) or anti-CAM (1:1000), respectively. The signals were detected with either ECL detection reagent or AP Conjugate Substrate Kit according to manufacturer's instructions. Band intensities on immunoblots were quantitated by Image J (NIH, Baltimore, Va.).

Ryr3 [5] = assay: Immunoblot of Ryr3 in 4L;C* cerebrum; type: in vivo, mouse; conditions: 44 days of age, untreated 9%
Protocol: (§3) Half of mice brain (sagittal cut) tissues were homogenized in M-PER Mammalian Protein Extraction Reagent and subjected to electrophoresis. Ryr proteins (−500 kD) in tissues lysate were separated on 3-8% NuPAGE gel running at 90V for 12 h at 4° C. in acetate buffer. […] was resolved on 4-12% Bis-Tris gel. The proteins were transferred to PVDF membrane using iBlot 2 gel transfer device following manufacturer's instructions. The blots were incubated with anti-mouse Ryr3 monoclonal antibody (1/250) or anti-13-actin (1:5000) overnight at 4° C. in 1.5% BSA/1.5% milk/PBS buffer. LC3, CAMK IV and calmodulin were separated on 16% Tris-glycine gel (Novex) and detected by anti-LC3 (1:1000), anti-CAMK IV (1:500) or anti-CAM (1:1000), respectively. The signals were detected with either ECL detection reagent or AP Conjugate Substrate Kit according to manufacturer's instructions. Band intensities on immunoblots were quantitated by Image J (NIH, Baltimore, Va.).

CAMK IV = assay: Immunoblot of CAMK IV in 4L;C* cerebrum; type: in vivo, mouse; design: reference not given here; conditions: untreated 61% of WT level
Protocol: as §3

Ryr1 and Ryr3 = conditions: reference 58; cited from earlier work
4L;C* mice [6] = assay: Gait analysis in nGD mouse model
Protocol: Progression of the neurobehavioural phenotype was assessed by gait analysis to determine sensorimotor function (77,78). Mice were trained to walk through a narrow alley leading into their home-cage. Once trained, paper was placed along the alley floor and the hind paws of each mouse were brushed with nontoxic paint. The mice were then placed at the beginning of the alley. As they walked into their home-cage they left their paw prints on the paper underneath. Stride length and width were determined by measuring the distance between hind paw prints. The 4L;C* and control mice, untreated and non-4L;C* littermates were tested for gait at 30 and 40 days of age.

4L;C* mice [7] = assay: Survival / life span in nGD mouse model; conditions: IP 10 mg/kg three days per week
Protocol: The data are presented as mean±SEM and were analysed by Student's t-test or one-way ANOVA with post-hoc Tukey test using GraphPad Prism 6. The level of significance was set at P<0.05. Survival analysis was performed using Kaplan-Meier and the Mantel-Cox tests.

N2a cells = assay: Substrate (GC, GS) levels in N2a cells by ESI-LC-MS/MS; type: cell-based, mouse; conditions: G6 0.8 μM, 5 days
Protocol: as §1, §2

CBE-N2a cells [8] = assay: Seahorse mitochondrial function assay (OCR) in cells; type: cell-based, mouse; conditions: CBE-N2a cells vs untreated CBE-N2a; dantrolene 12.5 μM, G6 0.8 μM
Protocol: as §4
Cell numbers were determined using a haemocytometer. Prior to mitochondrial function assay on XF96 Extracellular Flux Analyzers (Seahorse Biosciences), the cells in the wells of XF96 assay plates were washed by gently adding warm assay medium to the side of each well. […] The respiration parameters were calculated by subtracting the average respiration rates before and after the addition of the electron transport inhibitors: oligomycin, FCCP and antimycin A. The parameters include basal respiration (baseline respiration minus antimycin A post injection respiration), ATP production (baseline respiration minus oligomycin post injection respiration), and maximal respiratory (FCCP stimulated respiration minus antimycin A post injection respiration). […]

ryanodine receptor = conditions: vendor listing (Sigma); cited from earlier work

| Compound | GC and GS levels (CBE-N2a cells [1]; CBE-N2a cells, dantrolene 12.5 μM, G6 0.8 μM) | Cytosolic calcium level above baseline after caffeine [Fura-2 ΔF/F] (CBE-N2a cells [2]) | Body or organ weights [3] | Ryr3 protein level, % of WT level (Ryr3 [4]) [%] | Ryr3 protein level, % of WT (Ryr3 [5]) [%] | CAMK IV expression increase (CAMK IV) [%] | Ryr specificity (Ryr1 and Ryr3) | Base stride width (4L;C* mice [6]; IP 10 mg/kg three days per week from postnatal day 5, 30 and 40 days of age, vs untreated) | Stride length increase compared to untreated 4L;C* mice (4L;C* mice [6]; IP 10 mg/kg three days per week, 40 days of age) [%] | Life span / survival prolonged compared to untreated 4L;C* mice (4L;C* mice [7]; 10 mg/kg) | Median survival days (4L;C* mice [7]; untreated 44 days) [days] | GC reduction to % of untreated levels (N2a cells) [%] | GS level (CBE-N2a cells [1]; CBE-N2a cells vs untreated) | GC reduction to % of untreated levels (CBE-N2a cells [1]; CBE-N2a cells, G6 0.8 μM) [%] | Oxygen Consumption Rate (OCR: ATP production, basal respiration, maximal respiration) (CBE-N2a cells [8]) | Ryanodine receptor antagonist concentration (ryanodine receptor) [µM] |
| --- | --- | --- | --- | --- | --- | --- | --- | --- | --- | --- | --- | --- | --- | --- | --- | --- |
| O=C1CN(/N=C/c2ccc(-c3ccc([N+](=O)[O-])cc3)o2)C(O)=N1 [Dantrolene] | did not affect | significantly reduced | did not affect | 76 | 77 | 28 | specific to Ryr1 and Ryr3 | significantly reduced | 30 | 12.3% and 12.7% | 50 |  |  |  |  |  |
| CC(C)(NC(=O)OC1CN2CCC1CC2)c1cccc(-c2ccc(F)cc2)c1 (stereo not drawn) [G6] |  | significantly lower |  |  |  |  |  |  |  |  |  | 7 | significantly decreased | 26 | significant increases |  |
| Ryanodine |  | significant reduction |  |  |  |  |  |  |  |  |  |  |  |  |  | > 10 |
